Consider 1 molecule from patent US20090082304A1, “Methods of Treating Hematological Malignancies with Nucleoside Analog Drugs” (NORTHWESTERN UNIVERSITY, priority 2004, published 2009).

Holding throughout (format): cell-based
In series [1] the test system is ATF-2. The series is described as follows: Immunoblot of phospho-ATF-2 in MM.1 S cells. As to conditions: 10 μM, by 2 hours. The protocol:
(§1) 5×10^6 were cells treated with 10 μM 8-NH2-Ado for the indicated times and harvested. Cell pellets were washed with cold phosphate-buffered saline (PBS; 8.1 g NaCl, 1.14 g Na2HPO4, 0.22 g KCl, and 0.25 g/L KH2PO4) and incubated with lysis buffer (50 mM HEPES, 150 mM NaCl, 1.5 mM MgCl2, 1 mM EDTA pH 8.0, 100 mM NaFI, 10 mM Na Pyrophosphate, 500 μM PMSF, 0.5% Triton X-100, 10% glycerol) at 4° C. for one hour. Lysates were centrifuged at 4° C. for 1 minute at 9000×g, and the supernatants were collected and stored at −20° C. Protein concentration was determined by Bio-Rad protein assay (BioRad Laboratories, Hercules, Calif.). Protein, at a concentration of 30 μg, was mixed with sample buffer (125 mM Tris, pH 6.8, 4% SDS, 20% glycerol, 100 mM Dithiothreitol (DTT), and 0.05% bromophenol blue), and fractionated on a pre-cast 8-16% Tris-Glycine gel (Invitrogen/Novex, Carlsbad, Calif.). Proteins were then transferred to a Polyvinylidene Fluoride (PVDF) membrane (Immobilon-P, Millipore, Bedford, Mass.): Following protein transfer, membranes were blocked with 5% non-fat milk in PBS-T (PBS with 0.1% Tween), incubated with the primary antibody overnight at 4° C. and subsequently with horseradish peroxidase linked secondary antibody (Amersham, Arlington Heights, Ill.). […]
(Immunoblotting shows a protein as a band on a membrane.)

Series [2] deals with PDK1. Put plainly: Immunoblot of PDK1 (total and phosphorylated) in MM.1 S cells. The following applies: 10 μM, 0-6 hours. The protocol: as §1
The subject of series [3] is Akt kinase. The series is described as follows: Immunoblot of phospho-Akt in MM.1 S cells. The following applies: 10 μM. On the procedure: (§2) 5×10^6 were cells treated with 10 μM 8-NH2-Ado for the indicated times and harvested. Cell pellets were washed with cold phosphate-buffered saline (PBS; 8.1 g NaCl, 1.14 g Na2HPO4, 0.22 g KCl, and 0.25 g/L KH2PO4) and incubated with lysis buffer (50 mM HEPES, 150 mM NaCl, 1.5 mM MgCl2, 1 mM EDTA pH 8.0, 100 mM NaFI, 10 mM Na Pyrophosphate, 500 μM PMSF, 0.5% Triton X-100, 10% glycerol) at 4° C. for one hour. Lysates were centrifuged at 4° C. for 1 minute at 9000×g, and the supernatants were collected and stored at −20° C. Protein concentration was determined by Bio-Rad protein assay (BioRad Laboratories, Hercules, Calif.). Protein, at a concentration of 30 μg, was mixed with sample buffer (125 mM Tris, pH 6.8, 4% SDS, 20% glycerol, 100 mM Dithiothreitol (DTT), and 0.05% bromophenol blue), and fractionated on a pre-cast 8-16% Tris-Glycine gel (Invitrogen/Novex, Carlsbad, Calif.). Proteins were then transferred to a Polyvinylidene Fluoride (PVDF) membrane (Immobilon-P, Millipore, Bedford, Mass.): Following protein transfer, membranes were blocked with 5% non-fat milk in PBS-T (PBS with 0.1% Tween), incubated with the primary antibody overnight at 4° C. and subsequently with horseradish peroxidase linked secondary antibody (Amersham, Arlington Heights, Ill.). Blots were developed using ECL Plus Chemiluminescent Western Blotting Detection reagent (Amersham, Arlington Heights, Ill.) and the signal was visualized with X-ray film (Hyperfilm, Amersham, Arlington Heights, Ill.). For reprobing purposes, blots were stripped using Restore Western Blot Stripping Buffer from Pierce Biotechnology (Rockford, Ill.). Phospho-MKK3/6 (Ser189/207), phospho-p38 (Thr180/Tyr182), phospho-ATF-2 (Thr69/71), phospho-c-Raf (Ser259), phospho-MEK1/2 (Ser217/221), total MEK1/2, phospho-ERK1/2 (Thr202/Tyr204), total ERK1/2, phospho-p90RSK (Ser380), total RSK, phospho-PDK1 (Ser241), total PDKI, phospho-PTEN (Ser380), total PTEN, phospho-Akt (Ser473), total Akt, phospho-GSK-3β (Ser9), total GSK-3β, phospho-FKHRLI (Thr32)/-FKHR (Thr24), phospho-FKHR (Ser256) primary antibodies were obtained from Cell Signaling Technology (Beverly, Mass.). Total MKK3, total MKK6, total p38, total ATF-2, total c-Raf, total FKHR, total FKHRLI, phospho-JNK and total JNK were purchased from Santa Cruz Biotechnology (Santa Cruz, Calif.). Caspase 3, caspase 9, and PARP antibodies were obtained from Pharmingen (San Diego, Calif.) and anti-MKP1 from Upstate (Lake Placid, N.Y.). Anti-caspase 8 mouse serum was a generous gift of Dr. Marcus Peter (University of Chicago).
MM.1 S cells were exposed to 10 μM 8-NH2-Ado for 0, 0.5, 1, 2, 4 and 6 hours, after which cells were lysed as previously (Example 2). 30 μg of protein was separated by gel electrophoresis, transferred to PVDF membrane, and probed with phosphorylation-specific antibodies to MKK3/6, p38 MAPK, ATF-2, MEK1/2, ERK1/2, p90RSK, JNK1, PDK1, Akt, FKHRL1 and GSK-3β.
MM. I S cells were treated with 10 μM 8-chloro-adenosine for 0, 0.5, 1, 2, 4 or 6 hours or 10 μM of cytarabine, fludarabine, gemcitabine or 8-amino-adenosine for 4 hours. Cells were lysed as previously described and 30 μg of protein was separated by gel electrophoresis, transferred to PVDF membrane, and probed with phospho-p38 MAPK (Thr180/Tyr182) antibody.
MM.1 S cells were grown in dextrose-free media and treated with 2 μM Antimycin A, 5 mM 2-DOG, and varying concentrations of dextrose for 90 minutes. Cellular ATP levels were determined using triplicate samples in a luciferase based assay and are expressed here as a percentage of untreated control.

In series [4] the test system is GSK-3β. The series is described as follows: Immunoblot of phospho-GSK-3β in MM.1 S cells. The following applies: 10 μM. On the procedure:
as §1

Series [5] deals with total protein levels of the signaling proteins in myeloma cells. The series is described as follows: Immunoblot reprobe with total protein antibodies. On the procedure:
as §2
MM.1 S cells were exposed to 10 μM 8-NH2-Ado for 0, 0.5, 1, 2, 4 and 6 hours, after which cells were lysed as previously (Example 2). 30 μg of protein was separated by gel electrophoresis, transferred to PVDF membrane, and probed with phosphorylation-specific antibodies to MKK3/6, p38 MAPK, ATF-2, MEK1/2, ERK1/2, p90RSK, JNK1, PDK1, Akt, FKHRL1 and GSK-3β. […] FIGS. 1A, 1B, 1C and 1D provide the results of the blots.

Series [6] relates to MM cells. The protocol:
The MTS assay was performed as described previously (Krett et al., Clin Cancer Res. 3: 1781-1787). Briefly, MM cells were cultured into 96 well dishes at a concentration of 25,000 cells per well and incubated with the 8-NH2-Ado for 72 hours. Cell proliferation was determined using the MTS Cell Titer Aqueous assay (Promega, Madison, Wis.), which measured the conversion of a tetrazolium compound into formazan by a mitochondrial dehydrogenase enzyme in live cells. The quantity of formazan product as measured by the amount of 490 nm absorbance is directly proportional to the number of living cells in culture. The data were expressed as the percentage of formazan produced by the cells treated with the control medium in the same assay.

Series [7] has as its system PKC-8. Put plainly: Phosphorylation status of PKC-8.
In series [8] the test system is STAT proteins. Put plainly: Phosphorylation status of STAT proteins.

`Nc1ncnc2c1nc(N)n2[C@@H]1O[C@H](CO)[C@@H](O)[C@H]1O` [8-NH2-Ado, 8-amino-adenosine]: the “levels of phosphorylated ATF-2” value in series [1] is listed as “falling considerably”. Moreover, in series [2], the “Total and phosphorylated levels of PDK1” value is recorded as “remain unchanged”. For the same molecule, the “phosphorylation of Akt” value in series [3] (4 hours, data not shown) is recorded as “dramatic loss of phosphorylation”. Further, the Phospho-Akt levels entry in series [3] (by 2 hours) is recorded as “decrease significantly”. Besides, in series [3] (eventually (after 2 hours)), the Phospho-Akt levels result is given as “decline further to negligible levels”. Besides, the Phospho-OSK-3p levels entry in series [4] (by 2 hours) is on record as “diminish”. The Phospho-OSK-3p levels result in series [4] (by 6 hours) is listed as “negligible”. Further, in series [5] (MM.1 S cells, 10 μM, 0-6 hours), the “Total protein levels of the p38 MAPK module (MKK3/6, p38, ATF-2)” value is given as “remain unchanged”; the “total ERK1/2 levels” value is given as “remain unchanged”; the “total MEK1/2 protein levels” value is recorded as “do not change”; the “total p90RSK protein levels” value is “unaffected”. Also, in series [5] (MM.1 S cells, 10 μM, 0-6 hours), the “total protein levels of Forkhead family members” value is given as “do not change”. Further, the “total p38 levels” value in series [5] (RPMI-8226, MDR10V and MM.1 R cells) is listed as “remain unchanged”. For the same molecule, in series [6], the cytotoxicity entry is recorded as “cytotoxic” and the “effect on normal versus malignant cells” value is “differential effect”. The “phosphorylation status of PKC-8” value in series [7] was “unaltered”. Further, the “phosphorylation status of the STAT proteins” value in series [8] is listed as “unaltered”.
